# Source: the NIST ThermoML archive (doi:10.1021/je034102r)
# ± gives the expanded uncertainty stated by the source.
# Assay: molar heat capacity at constant pressure
# Settings: 101.33 kPa, Liquid, heat bridge-scanning calorimeter
compound,measurement,setting,value
CCCCn1cc[n+](C)c1.F[P-](F)(F)(F)(F)F [1-butyl-3-methylimidazolium hexafluorophosphate],molar heat capacity at constant pressure,408.32 K,474.58 ± 9.4 J/K/mol
same,molar heat capacity at constant pressure,408.61 K,473.73 ± 9.4 J/K/mol
same,molar heat capacity at constant pressure,408.74 K,473.45 ± 9.4 J/K/mol
same,molar heat capacity at constant pressure,408.88 K,473.45 ± 9.4 J/K/mol
same,molar heat capacity at constant pressure,409.01 K,473.45 ± 9.4 J/K/mol
same,molar heat capacity at constant pressure,409.14 K,473.73 ± 9.4 J/K/mol
same,molar heat capacity at constant pressure,409.27 K,474.02 ± 9.4 J/K/mol
same,molar heat capacity at constant pressure,409.4 K,474.02 ± 9.4 J/K/mol
same,molar heat capacity at constant pressure,409.53 K,473.73 ± 9.4 J/K/mol
same,molar heat capacity at constant pressure,409.67 K,473.73 ± 9.4 J/K/mol
same,molar heat capacity at constant pressure,409.8 K,474.3 ± 9.4 J/K/mol
same,molar heat capacity at constant pressure,409.93 K,474.58 ± 9.4 J/K/mol
same,molar heat capacity at constant pressure,410.22 K,475.15 ± 9.4 J/K/mol
same,molar heat capacity at constant pressure,410.35 K,474.58 ± 9.4 J/K/mol
same,molar heat capacity at constant pressure,410.48 K,474.3 ± 9.4 J/K/mol
same,molar heat capacity at constant pressure,410.61 K,474.3 ± 9.4 J/K/mol
same,molar heat capacity at constant pressure,410.74 K,474.58 ± 9.4 J/K/mol
same,molar heat capacity at constant pressure,410.88 K,474.3 ± 9.4 J/K/mol
same,molar heat capacity at constant pressure,411.01 K,474.3 ± 9.4 J/K/mol
same,molar heat capacity at constant pressure,411.14 K,474.02 ± 9.4 J/K/mol
same,molar heat capacity at constant pressure,411.27 K,473.73 ± 9.4 J/K/mol
same,molar heat capacity at constant pressure,411.58 K,475.72 ± 9.4 J/K/mol
same,molar heat capacity at constant pressure,411.71 K,475.72 ± 9.4 J/K/mol
same,molar heat capacity at constant pressure,411.84 K,476.01 ± 9.7 J/K/mol
same,molar heat capacity at constant pressure,411.97 K,476.01 ± 9.7 J/K/mol
same,molar heat capacity at constant pressure,412.11 K,475.72 ± 9.4 J/K/mol
same,molar heat capacity at constant pressure,412.24 K,475.15 ± 9.4 J/K/mol
same,molar heat capacity at constant pressure,412.37 K,474.58 ± 9.4 J/K/mol
same,molar heat capacity at constant pressure,412.5 K,474.87 ± 9.4 J/K/mol
same,molar heat capacity at constant pressure,412.63 K,474.58 ± 9.4 J/K/mol
same,molar heat capacity at constant pressure,412.77 K,475.15 ± 9.4 J/K/mol
same,molar heat capacity at constant pressure,412.9 K,475.15 ± 9.4 J/K/mol
same,molar heat capacity at constant pressure,413.18 K,474.58 ± 9.4 J/K/mol
same,molar heat capacity at constant pressure,413.31 K,474.58 ± 9.4 J/K/mol
same,molar heat capacity at constant pressure,413.45 K,474.3 ± 9.4 J/K/mol
same,molar heat capacity at constant pressure,413.58 K,474.3 ± 9.4 J/K/mol
same,molar heat capacity at constant pressure,413.71 K,474.3 ± 9.4 J/K/mol
same,molar heat capacity at constant pressure,413.84 K,474.3 ± 9.4 J/K/mol
same,molar heat capacity at constant pressure,413.97 K,474.02 ± 9.4 J/K/mol
same,molar heat capacity at constant pressure,414.11 K,474.02 ± 9.4 J/K/mol
same,molar heat capacity at constant pressure,414.24 K,474.3 ± 9.4 J/K/mol
same,molar heat capacity at constant pressure,414.53 K,474.58 ± 9.4 J/K/mol
same,molar heat capacity at constant pressure,414.67 K,475.44 ± 9.4 J/K/mol
same,molar heat capacity at constant pressure,414.8 K,476.01 ± 9.7 J/K/mol
same,molar heat capacity at constant pressure,414.93 K,476.29 ± 9.7 J/K/mol
same,molar heat capacity at constant pressure,415.07 K,476.29 ± 9.7 J/K/mol
same,molar heat capacity at constant pressure,415.2 K,476.57 ± 9.7 J/K/mol
same,molar heat capacity at constant pressure,415.33 K,476.01 ± 9.7 J/K/mol
same,molar heat capacity at constant pressure,415.47 K,476.01 ± 9.7 J/K/mol
same,molar heat capacity at constant pressure,415.6 K,475.72 ± 9.4 J/K/mol
same,molar heat capacity at constant pressure,415.73 K,475.44 ± 9.4 J/K/mol
same,molar heat capacity at constant pressure,415.87 K,475.44 ± 9.4 J/K/mol
same,molar heat capacity at constant pressure,416.15 K,475.44 ± 9.4 J/K/mol
same,molar heat capacity at constant pressure,416.29 K,475.44 ± 9.4 J/K/mol
same,molar heat capacity at constant pressure,416.42 K,475.15 ± 9.4 J/K/mol
same,molar heat capacity at constant pressure,416.55 K,474.87 ± 9.4 J/K/mol
same,molar heat capacity at constant pressure,416.69 K,475.15 ± 9.4 J/K/mol
same,molar heat capacity at constant pressure,416.82 K,475.15 ± 9.4 J/K/mol
same,molar heat capacity at constant pressure,416.95 K,475.72 ± 9.4 J/K/mol
same,molar heat capacity at constant pressure,417.08 K,476.01 ± 9.7 J/K/mol
same,molar heat capacity at constant pressure,417.22 K,477.43 ± 9.7 J/K/mol
same,molar heat capacity at constant pressure,417.52 K,476.57 ± 9.7 J/K/mol
same,molar heat capacity at constant pressure,417.65 K,476.86 ± 9.7 J/K/mol
same,molar heat capacity at constant pressure,417.8 K,476.57 ± 9.7 J/K/mol
same,molar heat capacity at constant pressure,417.93 K,476.29 ± 9.7 J/K/mol
same,molar heat capacity at constant pressure,418.06 K,476.29 ± 9.7 J/K/mol
same,molar heat capacity at constant pressure,418.2 K,475.72 ± 9.4 J/K/mol
same,molar heat capacity at constant pressure,418.33 K,475.72 ± 9.4 J/K/mol
same,molar heat capacity at constant pressure,418.46 K,475.72 ± 9.4 J/K/mol
same,molar heat capacity at constant pressure,418.6 K,475.44 ± 9.4 J/K/mol
same,molar heat capacity at constant pressure,418.73 K,476.01 ± 9.7 J/K/mol
same,molar heat capacity at constant pressure,418.86 K,477.14 ± 9.7 J/K/mol
same,molar heat capacity at constant pressure,419.15 K,478.56 ± 9.7 J/K/mol
same,molar heat capacity at constant pressure,419.29 K,477.71 ± 9.7 J/K/mol
same,molar heat capacity at constant pressure,419.42 K,477.14 ± 9.7 J/K/mol
same,molar heat capacity at constant pressure,419.55 K,476.57 ± 9.7 J/K/mol
same,molar heat capacity at constant pressure,419.69 K,476.57 ± 9.7 J/K/mol
same,molar heat capacity at constant pressure,419.82 K,476.29 ± 9.7 J/K/mol
same,molar heat capacity at constant pressure,419.96 K,476.57 ± 9.7 J/K/mol
same,molar heat capacity at constant pressure,420.09 K,476.57 ± 9.7 J/K/mol
same,molar heat capacity at constant pressure,420.22 K,476.29 ± 9.7 J/K/mol
same,molar heat capacity at constant pressure,420.52 K,477.14 ± 9.7 J/K/mol
same,molar heat capacity at constant pressure,420.66 K,476.57 ± 9.7 J/K/mol
same,molar heat capacity at constant pressure,420.79 K,477.14 ± 9.7 J/K/mol
same,molar heat capacity at constant pressure,420.92 K,477.14 ± 9.7 J/K/mol
same,molar heat capacity at constant pressure,421.06 K,477.14 ± 9.7 J/K/mol
same,molar heat capacity at constant pressure,421.19 K,477.43 ± 9.7 J/K/mol
same,molar heat capacity at constant pressure,421.33 K,476.86 ± 9.7 J/K/mol
same,molar heat capacity at constant pressure,421.46 K,476.86 ± 9.7 J/K/mol
same,molar heat capacity at constant pressure,421.59 K,476.86 ± 9.7 J/K/mol
same,molar heat capacity at constant pressure,421.73 K,476.57 ± 9.7 J/K/mol
same,molar heat capacity at constant pressure,421.86 K,476.57 ± 9.7 J/K/mol
same,molar heat capacity at constant pressure,422.15 K,477.14 ± 9.7 J/K/mol
same,molar heat capacity at constant pressure,422.28 K,477.99 ± 9.7 J/K/mol
same,molar heat capacity at constant pressure,422.42 K,478.56 ± 9.7 J/K/mol
